In ChEMBL document CHEMBL1150574, “3-Acetoxyspathulenol, a new aromadendrane-type natural product from the soft Coral Parerythropodium fulvum” (J Nat Prod, 2001) one finds Activity data, which are given here for one molecule.

Active and inactive are the calls of the source. The calls are words filed in the database; no cut-off is given here.

The subject of series [1] is Microbotryum violaceum. In words: Antimicrobial activity against Microbotryum violaceum. Type of series: functional, organism-based.
For series [2], the system named is Escherichia coli. Nature of the series: Antimicrobial activity against Escherichia coli. The class given is functional, organism-based.
Series [3] relates to Priestia megaterium. Nature of the series: Antimicrobial activity against Bacillus megaterium. Type of series: functional, organism-based.
In series [4] the test system is Caenorhabditis elegans. In words: Nematicide against Caenorhabditis elegans. Type of series: functional, organism-based.
For series [5], the system named is Artemia. In words: Toxicity against brine shrimp. Type of series: organism-based. The note with it: in vivo.
In series [6] the test system is Human immunodeficiency virus. In words: Inhibition of HIV reverse transcriptase.
Series [7] has as its system Fusarium oxysporum. In words: Antimicrobial activity against Fusarium oxysporum. The class given is functional, organism-based.
The test system of series [8] is [Chlorella] fusca. In words: Antimicrobial activity against Chlorella fusca. Type of series: functional, organism-based. Conditions: Scenedesmus fuscus.
Series [9] has as its system Aspergillus pseudoglaucus. In words: Antimicrobial activity against Eurotium repens. The class given is functional, organism-based.
The target in series [10] is Tyrosine-protein kinase Lck (Homo sapiens) (UniProt P06239). In words: Inhibition of p56 LCK.
For series [11], the system named is Mycotypha microspora. Nature of the series: Antimicrobial activity against Mycotypha microspora. Type of series: functional, organism-based.

Chain of Tyrosine-protein kinase Lck (Homo sapiens) (P06239 2-509 limits assumed): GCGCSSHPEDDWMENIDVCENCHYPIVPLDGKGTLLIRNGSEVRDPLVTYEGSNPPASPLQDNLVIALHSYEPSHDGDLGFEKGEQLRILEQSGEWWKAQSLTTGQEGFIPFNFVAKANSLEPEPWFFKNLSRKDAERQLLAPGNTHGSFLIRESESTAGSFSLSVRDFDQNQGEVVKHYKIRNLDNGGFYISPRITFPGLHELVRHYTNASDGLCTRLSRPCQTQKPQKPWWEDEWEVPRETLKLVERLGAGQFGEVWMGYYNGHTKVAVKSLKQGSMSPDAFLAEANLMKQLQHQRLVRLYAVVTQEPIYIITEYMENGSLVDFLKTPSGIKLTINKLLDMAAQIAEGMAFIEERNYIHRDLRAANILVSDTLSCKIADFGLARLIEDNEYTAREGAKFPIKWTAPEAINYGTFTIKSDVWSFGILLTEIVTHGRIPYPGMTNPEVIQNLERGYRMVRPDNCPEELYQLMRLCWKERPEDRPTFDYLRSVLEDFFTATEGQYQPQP

On to `C=C1CC[C@@H]2[C@H]([C@H]3[C@H]1C[C@@H](OC(C)=O)[C@@]3(C)O)C2(C)C`, for which the result in series [1], in [2], in series [3], in series [4], in series [6] and in series [7] was inactive. In addition, the outcome in series [8], in series [9], in [10] and in series [11] was inactive. For the same molecule, in [5], the Activity entry is “Non-toxic”.
